“Also recorded” adds a separate entry of the source.
Assays:
[1] = in vivo; cited from earlier work
[2] = target: human mu-opioid receptor (MOR), stably expressed in CHO cells (CHO-hMOR), in membranes (human) (UniProt P35372)
[3] = system: mice; parameters: method as in PMID 30571123; settings: s.c.; cited from earlier work
[4] = system: mice; settings: cited from earlier work
Excerpt: This is particularly important given the current rise in the abuse of prescription opioids, commonly MOR agonists. The MOR is established to play a major role in analgesia, but also on the undesirable opioid side effect of reward, with deletion of the gene encoding MOR (Oprm1) completely blocking opioid analgesia and reward behavior in rodents. To this aim, we used the conditioned place preference (CPP) paradigm, as described previously. The CPP is a w ...

[5] = system: mice; settings: 15.5 µmol/kg s.c. chronic, day 1 to day 4; cited from earlier work
[6] = target: T1, human MOR (Homo sapiens, UniProt P35372); assay: biochemical; format: biochemical
T1 sequence (P35372 whole entry): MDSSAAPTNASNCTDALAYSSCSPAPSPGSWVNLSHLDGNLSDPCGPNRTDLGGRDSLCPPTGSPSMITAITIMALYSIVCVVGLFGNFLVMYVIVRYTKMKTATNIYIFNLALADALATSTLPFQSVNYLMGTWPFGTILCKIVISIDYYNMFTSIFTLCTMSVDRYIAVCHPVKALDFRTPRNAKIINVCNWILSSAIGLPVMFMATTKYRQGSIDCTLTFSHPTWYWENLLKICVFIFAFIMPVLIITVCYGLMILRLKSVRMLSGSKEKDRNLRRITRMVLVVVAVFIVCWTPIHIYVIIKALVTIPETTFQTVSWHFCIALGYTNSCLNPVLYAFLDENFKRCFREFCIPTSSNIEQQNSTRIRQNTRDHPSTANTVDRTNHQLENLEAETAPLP

[7] = target: T1, human MOR; assay: cell-based; format: cell-based
[8] = system: mice; assay: Acetic acid-induced writhing assay (visceral pain); format: in vivo, mouse (male CD1); settings: s.c.
[9] = system: mice; assay: Conditioned place preference (CPP) test, rewarding effects; format: in vivo, mouse (male CD1); settings: 7.4 µmol/kg s.c. daily for 4 days, vs saline; n = 8 mice per group
[10] = system: mice; assay: Open-field test, spontaneous locomotor activity; format: in vivo, mouse (male CD1); settings: 7.4 µmol/kg s.c. daily for 4 days, vs saline; 30 min recording; n = 8 mice per group
[11] = system: human MOR; assay: Comparison of G protein activation ([35S]GTPγS binding) and β-arrestin2 recruitment (PathHunter)
[12] = system: human MOR; parameters: method as in 2 sources, one per row (each row's own in cited_ref): ref 19 = [19]; PMID 29708942; doi:10.1097/j.pain.0000000000001262; 19. Drieu La Rochelle A. Guillemyn K. Dumitrascuta M. Martin C. Utard V. Quillet R. Schneider S. Daubeuf F. Willemse T. Mampuys P. A bifunctional-biased mu-opioid agonist-neuropeptide FF receptor anta ||| ref 19 (suppl. ref 1); settings: cited from earlier work
[13] = system: MOR; parameters: method as in 3 sources, one per row (each row's own in cited_ref): ref 19 = [19]; PMID 29708942; doi:10.1097/j.pain.0000000000001262; 19. Drieu La Rochelle A. Guillemyn K. Dumitrascuta M. Martin C. Utard V. Quillet R. Schneider S. Daubeuf F. Willemse T. Mampuys P. A bifunctional-biased mu-opioid agonist-neuropeptide FF receptor anta ||| ref suppl. ref 1 ||| ref 19 (suppl. ref 1); settings: cited from earlier work
[14] = target: MOR; parameters: method as in suppl. ref 1; settings: radioligand competitive binding; ref suppl. ref 1; read-out: Binding affinity Ki, MOR; cited from earlier work
[15] = system: DOR; parameters: method as in 2 sources, one per row (each row's own in cited_ref): ref 19 = [19]; PMID 29708942; doi:10.1097/j.pain.0000000000001262; 19. Drieu La Rochelle A. Guillemyn K. Dumitrascuta M. Martin C. Utard V. Quillet R. Schneider S. Daubeuf F. Willemse T. Mampuys P. A bifunctional-biased mu-opioid agonist-neuropeptide FF receptor anta ||| ref suppl. ref 1; settings: cited from earlier work
[16] = target: NOP receptor; parameters: method as in suppl. ref 1; settings: radioligand competitive binding; ref suppl. ref 1; read-out: Binding affinity Ki, NOP receptor; cited from earlier work
[17] = system: DOR; parameters: method as in 2 sources, one per row (each row's own in cited_ref): ref 19 = [19]; PMID 29708942; doi:10.1097/j.pain.0000000000001262; 19. Drieu La Rochelle A. Guillemyn K. Dumitrascuta M. Martin C. Utard V. Quillet R. Schneider S. Daubeuf F. Willemse T. Mampuys P. A bifunctional-biased mu-opioid agonist-neuropeptide FF receptor anta ||| ref suppl. ref 1; settings: cited from earlier work; remark: listed apart in the source
[18] = system: KOR; parameters: method as in 2 sources, one per row (each row's own in cited_ref): ref 19 = [19]; PMID 29708942; doi:10.1097/j.pain.0000000000001262; 19. Drieu La Rochelle A. Guillemyn K. Dumitrascuta M. Martin C. Utard V. Quillet R. Schneider S. Daubeuf F. Willemse T. Mampuys P. A bifunctional-biased mu-opioid agonist-neuropeptide FF receptor anta ||| ref suppl. ref 1; settings: cited from earlier work
[19] = system: NOP receptor; parameters: method as in 2 sources, one per row (each row's own in cited_ref): ref 19 = [19]; PMID 29708942; doi:10.1097/j.pain.0000000000001262; 19. Drieu La Rochelle A. Guillemyn K. Dumitrascuta M. Martin C. Utard V. Quillet R. Schneider S. Daubeuf F. Willemse T. Mampuys P. A bifunctional-biased mu-opioid agonist-neuropeptide FF receptor anta ||| ref suppl. ref 1; settings: cited from earlier work
[20] = system: NPFF1R; parameters: method as in suppl. ref 1; settings: [35S]GTPγS binding assay; ref suppl. ref 1; cited from earlier work
[21] = system: NPFF2R; parameters: method as in suppl. ref 1; settings: [35S]GTPγS binding assay; ref suppl. ref 1; cited from earlier work
[22] = system: mice; parameters: method as in earlier work; settings: s.c., ref 19 (suppl. ref 1); cited from earlier work
[23] = system: mice; parameters: method as in 2 sources, ref 19 (suppl. ref 1) ||| ref 19 = [19]; PMID 29708942; doi:10.1097/j.pain.0000000000001262; 19. Drieu La Rochelle A. Guillemyn K. Dumitrascuta M. Martin C. Utard V. Quillet R. Schneider S. Daubeuf F. Willemse T. Mampuys P. A bifunctional-biased mu-opioid agonist-neuropeptide FF receptor anta; settings: s.c., cited from earlier work
[24] = system: mice; parameters: method as in earlier work; settings: s.c., 7.4 µmol/kg where stated (mechanical and thermal stimulation), ref 19 (suppl. ref 1); cited from earlier work
[25] = system: mice; settings: acute s.c., at effective antinociceptive doses (7.4 µmol/kg), ref 19 (suppl. ref 1); cited from earlier work
[26] = system: mice; parameters: method as in suppl. ref 1; settings: acute s.c., at effective antinociceptive doses, ref suppl. ref 1; cited from earlier work
[27] = system: mice; parameters: method as in suppl. ref 1; settings: acute s.c., at effective antinociceptive doses, ref suppl. ref 1; cited from earlier work; remark: listed apart in the source
[28] = system: mice; settings: chronic s.c., at effective antinociceptive doses (7.4 µmol/kg), ref 19 (suppl. ref 1); cited from earlier work
[29] = system: mice; settings: chronic s.c., at effective antinociceptive doses (7.4 µmol/kg), ref 19 (suppl. ref 1); cited from earlier work; remark: listed apart in the source
[30] = system: mice; settings: chronic s.c., at effective antinociceptive doses (7.4 µmol/kg), ref 19 (suppl. ref 1); cited from earlier work; remark: listed apart in the source
[31] = system: neuropeptide FF receptor (NPFFR); parameters: method as in PMID 29708942; settings: in vitro; cited from earlier work
[32] = relative to maximal effect of DAMGO (100%), HEK293 cells, ref 19 (suppl. ref 1)
[33] = cAMP accumulation assay, ref suppl. ref 1

human mu-opioid receptor (MOR), stably expressed in CHO cells (CHO-hMOR), in membranes (human), sequence (P35372 whole entry): as above

Compound: COc1ccc2c3c1O[C@H]1C(=O)CC[C@@]4(O)[C@@H](C2)N(C)CC[C@]314 [oxycodone]
- Sedation and locomotor activity [1]: known to produce sedation and to reduce locomotor activity

Compound: KGFF09 (H-Dmt-DArg-Aba-βAla-Bpa-Phe-NH2) (peptide)
- [35S]GTPγS binding (G protein activation), membranes from CHO-hMOR cells: EC50 [2]: 0.00828 µM
- [35S]GTPγS binding (G protein activation), membranes from CHO-hMOR cells: Emax (% of DAMGO) [2]: 92%

Compound: [D-Ala2,N-Me-Phe4,Gly-ol5]enkephalin (DAMGO) (peptide)
- [35S]GTPγS binding (G protein activation), membranes from CHO-hMOR cells: EC50 [2]: 0.035 µM
- [35S]GTPγS binding (G protein activation), membranes from CHO-hMOR cells: Emax (%, the reference set to 100) [2]: 100%

Compound: CN1CC[C@]23c4c5ccc(O)c4O[C@H]2[C@@H](O)C=C[C@H]3[C@H]1C5 [morphine]
- ED50, writhing assay (mass) [3]: 0.437 mg/kg
- ED50, writhing assay (molar) [3]: 1.36 µmol/kg
- Rewarding effect of morphine, CPP ([4]; 15.5 µmol/kg daily, vs saline): significant place preference compared to the saline group
- CPP with narcotic drugs ([4]; mice): produce CPP
- Spontaneous locomotor activity of morphine [5]: significant hyperlocomotion from day 1 to day 4
- Sedation and locomotor activity [1]: known to produce sedation and to reduce locomotor activity

Compound: Cc1cc(O)cc(C)c1C[C@H](N)C(=O)N[C@H](CCCNC(=N)N)C(=O)NC1Cc2ccccc2CN(CCC(=O)NC(CCCN2CCC(Cc3ccccc3)CC2)C(=O)N[C@@H](Cc2ccccc2)C(N)=O)C1=O (stereo partly drawn) [KGFF09, H-Dmt-DArg-Aba-βAla-Bpa-Phe-NH2]
- Functional profile at MOR in [35S]GTPγS binding [6]: full agonist with high G protein coupling potency
- Potency increase compared to DAMGO, G protein activation [6]: four-fold increase in potency compared to DAMGO
- Emax ([6]; read-out: Emax, [35S]GTPγS binding): 92 ± 9%
- β-arrestin2 recruitment [7]: failed to robustly engage β-arrestin2 recruitment
- Emax ([7]; read-out: Emax, β-arrestin2 recruitment (PathHunter)): 57 ± 3%
- Antinociceptive ED50, writhing assay ([8]; 30 min after administration, Litchfield and Wilcoxon): 0.079 µmol/kg
- Effect in writhing assay ([8]; mice): yes and dose-dependent inhibition of the writhing behavior
- Potency vs morphine, writhing assay ([8]; ratio of ED50 (morphine ED50 from ref 24)): 17 fold
- Rewarding effect, CPP [9]: no and no significant CPP response compared to saline-treated animals
- Spontaneous locomotor activity, distance traveled [10]: no and no impairment in the locomotor activity
- Decrease in potency, β-arrestin2 recruitment vs G protein activation ([11]; PathHunter vs [35S]GTPγS binding, human MOR): 153 fold
- Signaling bias at MOR ([11]; [35S]GTPγS binding vs PathHunter β-arrestin2): G protein-biased MOR agonist in vitro
- EC50 ([12]; HEK293 cells co-expressing cAMP Glosensor-20F and human MOR, ref 19 (suppl. ref 1), read-out: EC50, cAMP accumulation, MOR): 0.0182 µM
- Functional profile in cAMP accumulation, MOR ([12]; HEK293 cells, human MOR): potent and full MOR agonist
- Emax, cAMP accumulation, MOR [12, 32]: 85%
- EC50 ([13]; HEK293 cells expressing eYFP-tagged β-arrestin-2, MOR-Rluc8, ref 19 (suppl. ref 1), read-out: EC50, BRET β-arrestin2 recruitment (Table S3)): 0.0564 µM
- BRET β-arrestin2 recruitment and bias ([13]; HEK293 cells, MOR): reduced efficacy (acting as a partial agonist) in inducing β-arrestin2 recruitment
- Signaling bias at MOR in vitro, earlier study [13]: G protein-biased MOR agonist
- Emax, BRET β-arrestin2 recruitment (Table S3) [13, 32]: 42%
- Ki [14]: 0.00243 µM
- Binding affinity lower at DOR than at MOR ([15]; DOR vs MOR): 77 fold
- Ki ([15]; radioligand competitive binding, ref suppl. ref 1, read-out: Binding affinity Ki, DOR): 0.186 µM
- Ki [16]: 0.209 µM
- Emax, G protein activation, DOR [17, 33]: 90%
- Functional profile at DOR [17]: agonist activity at the delta opioid receptor (DOR)
- Emax, G protein activation, KOR [18, 33]: 15%
- EC50 ([18]; cAMP accumulation assay, ref suppl. ref 1, read-out: EC50, G protein activation, KOR): > 10 µM
- Functional profile at KOR [18]: antagonist profile
- Emax, G protein activation, NOP receptor [19, 33]: 7%
- EC50 ([19]; cAMP accumulation assay, ref suppl. ref 1, read-out: EC50, G protein activation, NOP receptor): > 10 µM
- Functional profile at NOP receptor [19]: antagonist profile
- pA2, NPFF1R [20]: 7.25
- pA2, NPFF2R [21]: 7.77
- Antinociception, warm-water tail-withdrawal test [22]: yes and potent and long-lasting antinociceptive activity and very effective with long-lasting antinociceptive effects
- Antinociception, radiant tail-flick test ([23]; ref 19 (suppl. ref 1)): yes and potent and long-lasting antinociceptive activity and very effective with long-lasting antinociceptive effects
- ED90, tail-flick test [23]: 7.4 µmol/kg
- Potency vs morphine, tail-flick test [23]: three-fold more potent than morphine
- Relation of 7.4 µmol/kg to tail-flick ED50 [23]: three-fold antinociceptive ED50 dose
- Antihyperalgesic effect, CFA-induced hyperalgesia [24]: yes and potent and long-lasting antinociceptive activity and completely reduced pain behavior of mice to mechanical and thermal stimulation and very effective with long-lasting antinociceptive effects
- Respiratory depression [25]: less acute side effects; also recorded: reduced opioid-induced side effects
- Constipation [26]: yes
- Sedation/motor impairment [27]: yes
- Opioid-induced hyperalgesia [28]: no and reduced side effects and reduced opioid-induced side effects
- Antinociceptive/analgesic tolerance [29]: no and reduced side effects and reduced opioid-induced side effects
- Withdrawal syndrome [30]: no and reduced side effects and reduced opioid-induced side effects
- Functional profile at NPFFR [31]: NPFFR antagonist

Source: article PMC9780937 (Molecules, 2022)
